Assay results as given in paper PMC7153937, “Imipridone Anticancer Compounds Ectopically Activate the ClpP Protease and Represent a New Scaffold for Antibiotic Development” (Genetics, 2020).

Target: T1, S. aureus ClpP (Staphylococcus aureus, UniProt Q2G036)
T1 construct: S. aureus ClpP expressed from the GAL1 promoter in S. cerevisiae
Test: yeast surrogate genetic assay: ClpP-dependent growth inhibition vs. empty vector
Format: cell-based

T1 sequence (Q2G036 whole entry): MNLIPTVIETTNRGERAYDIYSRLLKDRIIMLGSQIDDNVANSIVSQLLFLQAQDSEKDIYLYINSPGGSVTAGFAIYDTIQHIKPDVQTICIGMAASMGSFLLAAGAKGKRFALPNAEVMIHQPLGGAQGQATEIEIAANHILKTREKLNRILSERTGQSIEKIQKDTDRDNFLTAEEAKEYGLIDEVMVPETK

O=C1C2=C(CCN(Cc3ccccc3)C2)N2CCN=C2N1Cc1ccc(C(F)(F)F)cc1 [ONC212]
IC50: 5.4 µM
